Source: patent publication US9771341B2, “Piperazine carbamates and methods of making and using same” (Abide Therapeutics, Inc., priority 2015, dated 2017)

Legend:
MAGL [1] = molecular target: T1, MAGL (Mus musculus, UniProt O35678); experiment: In vitro competitive activity-based protein profiling (mouse), MAGL; type: biochemical; conditions: for inhibition at 1 µM: mouse proteome, in vitro, read-out: % Inhibition at 1 μM MAGL; for IC50: mouse brain membrane fraction or cell lysates, 30 min preincubation at 37° C, FP-Rh probe
T1 construct: Proteomes (mouse brain membrane fraction or cell lysates); from tissue; host or cells: mouse brain membrane fraction (or unspecified cell lysates)
T1 sequence (O35678 1-303): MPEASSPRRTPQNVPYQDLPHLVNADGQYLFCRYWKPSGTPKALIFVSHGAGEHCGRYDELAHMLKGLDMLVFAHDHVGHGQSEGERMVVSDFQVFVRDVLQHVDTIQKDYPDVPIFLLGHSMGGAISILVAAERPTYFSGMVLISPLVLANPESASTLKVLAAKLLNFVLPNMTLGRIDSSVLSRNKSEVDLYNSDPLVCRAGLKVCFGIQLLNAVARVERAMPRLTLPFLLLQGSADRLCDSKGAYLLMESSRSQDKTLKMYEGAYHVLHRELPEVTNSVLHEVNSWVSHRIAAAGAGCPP
Method: (§1) In Vitro Competitive Activity-Based Protein Profiling (Mouse).
(§2) Proteomes (mouse brain membrane fraction or cell lysates) (50 μL, 1.0 mg/mL total protein concentration) were preincubated with varying concentrations of inhibitors at 37° C. After 30 min, FP-Rh (1.0 μL, 50 μM in DMSO) was added and the mixture was incubated for another 30 min at 37° C. Reactions were quenched with SDS loading buffer (50 μL-4×) and run on SDS-PAGE.

FAAH [2] = molecular target: T2, FAAH (Mus musculus, UniProt O08914); experiment: In vitro competitive activity-based protein profiling (mouse), FAAH; type: biochemical; conditions: for inhibition at 1 µM: mouse proteome, in vitro; for IC50: mouse brain membrane fraction or cell lysates, 30 min preincubation at 37° C, FP-Rh probe
T2 construct: Proteomes (mouse brain membrane fraction or cell lysates); from tissue; host or cells: mouse brain membrane fraction (or unspecified cell lysates)
T2 sequence (O08914 1-579): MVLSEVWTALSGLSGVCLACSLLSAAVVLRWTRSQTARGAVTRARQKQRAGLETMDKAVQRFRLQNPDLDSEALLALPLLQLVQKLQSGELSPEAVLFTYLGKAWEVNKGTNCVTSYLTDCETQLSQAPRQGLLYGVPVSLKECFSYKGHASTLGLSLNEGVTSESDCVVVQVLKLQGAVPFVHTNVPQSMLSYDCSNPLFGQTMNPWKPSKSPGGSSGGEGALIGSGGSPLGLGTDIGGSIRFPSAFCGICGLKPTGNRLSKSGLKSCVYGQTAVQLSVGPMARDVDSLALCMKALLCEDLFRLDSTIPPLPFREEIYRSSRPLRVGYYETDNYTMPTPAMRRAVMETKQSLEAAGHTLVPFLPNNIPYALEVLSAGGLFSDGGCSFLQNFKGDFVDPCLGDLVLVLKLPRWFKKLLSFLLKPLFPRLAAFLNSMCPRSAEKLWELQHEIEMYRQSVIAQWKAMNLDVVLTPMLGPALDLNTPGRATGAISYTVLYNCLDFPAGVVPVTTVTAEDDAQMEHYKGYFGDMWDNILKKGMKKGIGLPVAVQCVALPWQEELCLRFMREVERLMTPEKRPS
How it was run: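 Mouse brain membrane fraction or cell lysates (1.0 mg/mL protein) preincubated with inhibitors 30 min at 37° C, then FP-Rh probe 30 min at 37° C. SDS-PAGE fluorescence band intensity gave FAAH activity.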

ABHD6 [3] = molecular target: T3, ABHD6 (Mus musculus, UniProt Q8R2Y0); experiment: In vitro competitive activity-based protein profiling (mouse), ABHD6; type: biochemical; conditions: for inhibition at 1 µM: mouse proteome, in vitro, read-out: % Inhibition at 1 μM ABHD6; for IC50: mouse brain membrane fraction or cell lysates, 30 min preincubation at 37° C, FP-Rh probe
T3 construct: Proteomes (mouse brain membrane fraction or cell lysates); from tissue; host or cells: mouse brain membrane fraction (or unspecified cell lysates)
T3 sequence (Q8R2Y0 1-336): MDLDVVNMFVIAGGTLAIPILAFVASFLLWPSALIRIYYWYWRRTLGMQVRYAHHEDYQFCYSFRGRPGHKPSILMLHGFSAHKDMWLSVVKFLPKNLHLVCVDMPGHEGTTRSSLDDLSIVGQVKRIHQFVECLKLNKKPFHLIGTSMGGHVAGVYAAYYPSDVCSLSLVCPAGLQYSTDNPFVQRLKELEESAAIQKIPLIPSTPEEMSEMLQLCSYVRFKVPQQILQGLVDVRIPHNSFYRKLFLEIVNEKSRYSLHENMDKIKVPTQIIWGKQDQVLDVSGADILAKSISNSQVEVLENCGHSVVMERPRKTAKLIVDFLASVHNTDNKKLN
Method: as §1, §2

MAGL [4] = molecular target: T1, MAGL; experiment: Mouse brain proteomes from inhibitor treated mice, MAGL; type: in vivo; conditions: 5 mg/kg oral gavage, C57Bl/6J mice, brain proteome 4 h after administration
Method: (§3) Preparation of Mouse Brain Proteomes from Inhibitor Treated Mice.
(§4) Inhibitors were administered to wild-type C57Bl/6J by oral gavage in a vehicle of polyethylene glycol.

FAAH [5] = molecular target: T2, FAAH; experiment: Mouse brain proteomes from inhibitor treated mice, FAAH; type: in vivo; conditions: 5 mg/kg oral gavage, C57Bl/6J mice, brain proteome 4 h after administration
Method: as §3
Inhibitors were administered to wild-type C57Bl/6J by oral gavage in a vehicle of polyethylene glycol. Each animal was sacrificed 4 h following administration and brain proteomes were prepared and analyzed according to previously established methods (See Niphakis, M. J., et al. (2011) ACS Chem. Neurosci. and Long, J. Z., et al. Nat. Chem. Biol. 5:37-44)

ABHD6 [6] = molecular target: T3, ABHD6; experiment: Mouse brain proteomes from inhibitor treated mice, ABHD6; type: in vivo; conditions: 5 mg/kg oral gavage, C57Bl/6J mice, brain proteome 4 h after administration
Method: as §3, §4

Row | inhibition at 1 µM (MAGL [1]) | IC50 (MAGL [1]) | inhibition at 1 µM (FAAH [2]) | IC50 (FAAH [2]) | inhibition at 1 µM (ABHD6 [3]) | IC50 (ABHD6 [3]) | inhibition at 5 mg/kg (MAGL [4]) | inhibition at 5 mg/kg (FAAH [5]) | inhibition at 5 mg/kg (ABHD6 [6]) | SMILES
1 | > 75% | < 100 nM | < 25% | > 1000 nM | < 25% | > 1000 nM | < 25% | < 25% | < 25% | O=C(OC(C(F)(F)F)C(F)(F)F)N1CCN(Cc2cccc(OC(F)(F)F)c2N2CCC(N3CCCC3)CC2)CC1 [Example 32, 1,1,1,3,3,3-hexafluoropropan-2-yl 4-(2-(4-(pyrrolidin-1-yl)piperidin-1-yl)-3-(trifluoromethoxy)benzyl)piperazine-1-carboxylate]
2 | > 75% | < 100 nM | < 25% | > 1000 nM | > 75% | 100 to 1000 nM | > 75% | < 25% | > 75% | NC(=O)C1CCN(c2cc(Cl)ccc2CN2CCN(C(=O)OC(C(F)(F)F)C(F)(F)F)CC2)CC1 [Example 33, 1,1,1,3,3,3-hexafluoropropan-2-yl 4-(2-(4-carbamoylpiperidin-1-yl)-4-chlorobenzyl)piperazine-1-carboxylate]
3 | > 75% | < 100 nM | < 25% | > 1000 nM | < 25% | > 1000 nM | > 75% | < 25% | < 25% | CN(C)C(=O)C1CCN(c2cc(C(F)(F)F)ccc2CN2CCN(C(=O)OC(C(F)(F)F)C(F)(F)F)CC2)CC1 [Example 35, 1,1,1,3,3,3-hexafluoropropan-2-yl 4-(2-(4-(dimethylcarbamoyl)piperidin-1-yl)-4-(trifluoromethyl)benzyl)piperazine-1-carboxylate]
4 | > 75% | < 100 nM | < 25% | > 1000 nM | 25 to 75% | > 1000 nM | > 75% | < 25% | 25 to 75% | CS(=O)(=O)N[C@@H]1CCN(c2cc(Cl)ccc2CN2CCN(C(=O)OC(C(F)(F)F)C(F)(F)F)CC2)C1 [Example 39, 1,1,1,3,3,3-hexafluoropropan-2-yl (R)-4-(4-chloro-2-(3-(methylsulfonamido)pyrrolidin-1-yl)benzyl)piperazine-1-carboxylate]
5 | > 75% | < 100 nM | < 25% | > 1000 nM | < 25% | > 1000 nM | > 75% | < 25% | < 25% | CS(=O)(=O)N[C@H]1CCN(c2cc(Cl)ccc2CN2CCN(C(=O)OC(C(F)(F)F)C(F)(F)F)CC2)C1 [Example 40, 1,1,1,3,3,3-hexafluoropropan-2-yl (S)-4-(4-chloro-2-(3-(methylsulfonamido)pyrrolidin-1-yl)benzyl)piperazine-1-carboxylate]
6 | > 75% | < 100 nM | < 25% | > 1000 nM | 25 to 75% | > 1000 nM | > 75% | < 25% | < 25% | O=C(OC(C(F)(F)F)C(F)(F)F)N1CCN(Cc2ccc(Cl)cc2N2CC[C@@H](N3CCCC3=O)C2)CC1 [Example 41, 1,1,1,3,3,3-hexafluoropropan-2-yl (R)-4-(4-chloro-2-(2-oxo-[1,3′-bipyrrolidin]-1′-yl)benzyl)piperazine-1-carboxylate]
7 | > 75% | < 100 nM | < 25% | > 1000 nM | 25 to 75% | 100 to 1000 nM | > 75% | < 25% | < 25% | O=C(OC(C(F)(F)F)C(F)(F)F)N1CCN(Cc2ccc(Cl)cc2N2CC[C@H](N3CCCC3=O)C2)CC1 [Example 42, 1,1,1,3,3,3-hexafluoropropan-2-yl (S)-4-(4-chloro-2-(2-oxo-[1,3′-bipyrrolidin]-1′-yl)benzyl)piperazine-1-carboxylate]
8 | > 75% | < 100 nM | < 25% | > 1000 nM | < 25% | > 1000 nM | 25 to 75% | < 25% | < 25% | O=C(OC(C(F)(F)F)C(F)(F)F)N1CCN(Cc2ccc(Cl)cc2N2CC[C@@H](N3CCCCC3=O)C2)CC1 [Example 43, 1,1,1,3,3,3-hexafluoropropan-2-yl (R)-4-(4-chloro-2-(3-(2-oxopiperidin-1-yl)pyrrolidin-1-yl)benzyl)piperazine-1-carboxylate]
9 | > 75% | < 100 nM | < 25% | > 1000 nM | < 25% | > 1000 nM | < 25% | < 25% | < 25% | O=C(OC(C(F)(F)F)C(F)(F)F)N1CCN(Cc2ccc(Cl)cc2N2CC[C@H](N3CCCCC3=O)C2)CC1 [Example 44, 1,1,1,3,3,3-hexafluoropropan-2-yl (S)-4-(4-chloro-2-(3-(2-oxopiperidin-1-yl)pyrrolidin-1-yl)benzyl)piperazine-1-carboxylate]
10 | > 75% | < 100 nM | < 25% | > 1000 nM | > 75% | 100 to 1000 nM | 25 to 75% | < 25% | < 25% | O=C(OC(C(F)(F)F)C(F)(F)F)N1CCN(Cc2ccc(Cl)cc2N2CC[C@@H](N3CCCS3(=O)=O)C2)CC1 [Example 45, 1,1,1,3,3,3-hexafluoropropan-2-yl (R)-4-(4-chloro-2-(3-(1,1-dioxidoisothiazolidin-2-yl)pyrrolidin-1-yl)benzyl)piperazine-1-carboxylate]
11 | > 75% | < 100 nM | < 25% | > 1000 nM | < 25% | > 1000 nM | > 75% | < 25% | < 25% | Cc1cccc(CN2CCN(C(=O)OC(C(F)(F)F)C(F)(F)F)CC2)c1N1CCC(NS(C)(=O)=O)CC1 [Example 51, 1,1,1,3,3,3-hexafluoropropan-2-yl 4-(3-methyl-2-(4-(methylsulfonamido)piperidin-1-yl)benzyl)piperazine-1-carboxylate]
12 | > 75% | < 100 nM | < 25% | > 1000 nM | < 25% | > 1000 nM | > 75% | < 25% | < 25% | Cc1ccc(CN2CCN(C(=O)OC(C(F)(F)F)C(F)(F)F)CC2)c(N2CC[C@H](CF)C2)c1 [Example 53, 1,1,1,3,3,3-hexafluoropropan-2-yl (S)-4-(2-(3-(fluoromethyl)pyrrolidin-1-yl)-4-methylbenzyl)piperazine-1-carboxylate]
